Measurements from ChEMBL document CHEMBL5634161, “Discovery of benzamide-based PI3K/HDAC dual inhibitors with marked pro-apoptosis activity in lymphoma cells” (Eur J Med Chem, 2023).

Key:
[1] = biological target: Phosphatidylinositol 4,5-bisphosphate 3-kinase catalytic subunit alpha isoform (Homo sapiens, UniProt P42336); test: Inhibition of PI3Kalpha (unknown origin) using PIP2 as substrate incubated for 1 hrs in presence of ATP by ADP-Glo kinase assay
Histone deacetylase 3 = Histone deacetylase 3 (Homo sapiens, UniProt O15379); test: Inhibition of HDAC3 (unknown origin) using Boc-Lys(acetyl)-AMC as substrate preincubated for 1 hrs followed by substrate addition and measured after 2 hrs by spectrophotometer based fluorometric assay
Histone deacetylase 1 = Histone deacetylase 1 (Homo sapiens, UniProt Q13547); test: Inhibition of HDAC1 (unknown origin) using Boc-Lys(acetyl)-AMC as substrate preincubated for 1 hrs followed by substrate addition and measured after 2 hrs by spectrophotometer based fluorometric assay
Histone deacetylase 2 = Histone deacetylase 2 (Homo sapiens, UniProt Q92769); test: Inhibition of HDAC2 (unknown origin) using Boc-Lys(acetyl)-AMC as substrate preincubated for 1 hrs followed by substrate addition and measured after 2 hrs by spectrophotometer based fluorometric assay
JeKo-1 [2] = test: Induction of apoptosis in human JeKo-1 cells assessed as viable cells at 0.5 uM incubated for 48 hrs by Annexin-V/FITC and PI staining based flow cytometric analysis (reference value: 94.1%); type: functional; conditions: read-out: Activity
MDA-MB-231 = test: Antiproliferative activity against human MDA-MB-231 cells incubated for 48 hrs by resazurin dye based fluorescence micro plate reader analysis; type: functional, cell-based; conditions: MDA-MB-231, 48 h
JeKo-1 [3] = test: Induction of apoptosis in human JeKo-1 cells assessed as necrotic cells at 0.25 uM incubated for 48 hrs by Annexin-V/FITC and PI staining based flow cytometric analysis (reference value: 1.05%); type: functional
JeKo-1 [4] = test: (§1) Synergistic antiproliferative activity against human JeKo-1 cells assessed as combination index at 2.5 uM incubated for 48 hrs in presence of 0.625 uM 4-(3-(4-(4-methoxy-6-morpholino-1,3,5-triazin-2-yl)phenyl)urea)-N-(2-ethylamino)ethylbenzamide by resazurin dye based fluorescence microplate reader analysis; type: functional
JeKo-1 [5] = test: as §1, with “5” for “2.5”, “2.5” for “0.625”; type: functional
JeKo-1 [6] = test: Antiproliferative activity against human JeKo-1 cells incubated for 48 hrs by resazurin dye based fluorescence micro plate reader analysis; type: functional, cell-based; conditions: JeKo-1, 48 h
JeKo-1 [7] = test: Induction of apoptosis in human JeKo-1 cells assessed as necrotic cells at 0.5 uM incubated for 48 hrs by Annexin-V/FITC and PI staining based flow cytometric analysis (reference value: 1.05%); type: functional
JeKo-1 [8] = test: Induction of apoptosis in human JeKo-1 cells assessed as necrotic cells at 1 uM incubated for 48 hrs by Annexin-V/FITC and PI staining based flow cytometric analysis (reference value: 1.05%); type: functional
JeKo-1 [9] = test: as §1, with “2.5” for “0.625”; type: functional
JeKo-1 [10] = test: as §1, with “1.25” for “2.5”, “5” for “0.625”; type: functional
JeKo-1 [11] = test: Induction of apoptosis in human JeKo-1 cells assessed as late apoptotic cells at 1 uM incubated for 48 hrs by Annexin-V/FITC and PI staining based flow cytometric analysis (reference value: 3.66%); type: functional
JeKo-1 [12] = test: as §1, with “5” for “2.5”, “1.25” for “0.625”; type: functional
JeKo-1 [13] = test: Induction of apoptosis in human JeKo-1 cells assessed as early apoptotic cells at 1 uM incubated for 48 hrs by Annexin-V/FITC and PI staining based flow cytometric analysis (reference value: […]); type: functional
JeKo-1 [14] = test: Induction of apoptosis in human JeKo-1 cells assessed as viable cells at 0.25 uM incubated for 48 hrs by Annexin-V/FITC and PI staining based flow cytometric analysis (reference value: 94.1%); type: functional; conditions: read-out: Activity
JeKo-1 [15] = test: as §1, with “1.25” for “2.5”; type: functional
JeKo-1 [16] = test: as §1, with “0.625” for “2.5”, “2.5” for “0.625”; type: functional
JeKo-1 [17] = test: as §1, with “5” for “2.5”; type: functional
JeKo-1 [18] = test: as §1, with “5” for “0.625”; type: functional
JeKo-1 [19] = test: Induction of apoptosis in human JeKo-1 cells assessed as late apoptotic cells at 0.25 uM incubated for 48 hrs by Annexin-V/FITC and PI staining based flow cytometric analysis (reference value: 3.66%); type: functional
MM1.S = test: Antiproliferative activity against human MM1.S cells incubated for 48 hrs by resazurin dye based fluorescence micro plate reader analysis; type: functional, cell-based
JeKo-1 [20] = test: Induction of apoptosis in human JeKo-1 cells assessed as late apoptotic cells at 0.5 uM incubated for 48 hrs by Annexin-V/FITC and PI staining based flow cytometric analysis (reference value: 3.66%); type: functional
JeKo-1 [21] = test: as §1, with “5” for “2.5”, “5” for “0.625”; type: functional
JeKo-1 [22] = test: as §1, with “0.625” for “2.5”, “1.25” for “0.625”; type: functional
[23] = Cytotoxicity against human HL7702 cells incubated for 48 hrs by resazurin dye based fluorescence micro plate reader analysis; type: toxicity, cell-based; conditions: HL7702 (L02) cells
JeKo-1 [24] = test: Induction of apoptosis in human JeKo-1 cells assessed as early apoptotic cells at 0.5 uM incubated for 48 hrs by Annexin-V/FITC and PI staining based flow cytometric analysis (reference value: […]); type: functional
JeKo-1 [25] = test: as §1, with “0.625” for “2.5”; type: functional
JeKo-1 [26] = test: Induction of apoptosis in human JeKo-1 cells assessed as viable cells at 1 uM incubated for 48 hrs by Annexin-V/FITC and PI staining based flow cytometric analysis (reference value: 94.1%); type: functional; conditions: read-out: Activity
JeKo-1 [27] = test: as §1, with “1.25” for “2.5”, “2.5” for “0.625”; type: functional
HL-60 = test: Antiproliferative activity against human HL-60 cells incubated for 48 hrs by resazurin dye based fluorescence micro plate reader analysis; type: functional, cell-based; conditions: HL-60, 48 h
JeKo-1 [28] = test: Induction of apoptosis in human JeKo-1 cells assessed as early apoptotic cells at 0.25 uM incubated for 48 hrs by Annexin-V/FITC and PI staining based flow cytometric analysis (reference value: […]); type: functional
JeKo-1 [29] = test: as §1, with “0.625” for “2.5”, “5” for “0.625”; type: functional
JeKo-1 [30] = test: as §1, with “1.25” for “2.5”, “1.25” for “0.625”; type: functional
JeKo-1 [31] = test: as §1, with “1.25” for “0.625”; type: functional

Chain of Histone deacetylase 1 (Q13547 whole entry): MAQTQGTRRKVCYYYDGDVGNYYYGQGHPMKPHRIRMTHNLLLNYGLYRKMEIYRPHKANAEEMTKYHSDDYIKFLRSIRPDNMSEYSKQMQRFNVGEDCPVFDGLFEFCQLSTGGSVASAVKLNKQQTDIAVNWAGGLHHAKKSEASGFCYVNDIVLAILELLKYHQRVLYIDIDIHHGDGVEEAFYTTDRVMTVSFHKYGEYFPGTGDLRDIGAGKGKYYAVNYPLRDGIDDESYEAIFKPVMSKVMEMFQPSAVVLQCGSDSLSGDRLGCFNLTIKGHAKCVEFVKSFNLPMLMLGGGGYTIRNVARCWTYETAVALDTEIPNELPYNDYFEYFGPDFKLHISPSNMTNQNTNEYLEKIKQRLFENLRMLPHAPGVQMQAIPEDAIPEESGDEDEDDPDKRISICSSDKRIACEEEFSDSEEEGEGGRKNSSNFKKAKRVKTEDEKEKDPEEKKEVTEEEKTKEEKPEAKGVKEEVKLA
Chain of Histone deacetylase 2 (Q92769 whole entry): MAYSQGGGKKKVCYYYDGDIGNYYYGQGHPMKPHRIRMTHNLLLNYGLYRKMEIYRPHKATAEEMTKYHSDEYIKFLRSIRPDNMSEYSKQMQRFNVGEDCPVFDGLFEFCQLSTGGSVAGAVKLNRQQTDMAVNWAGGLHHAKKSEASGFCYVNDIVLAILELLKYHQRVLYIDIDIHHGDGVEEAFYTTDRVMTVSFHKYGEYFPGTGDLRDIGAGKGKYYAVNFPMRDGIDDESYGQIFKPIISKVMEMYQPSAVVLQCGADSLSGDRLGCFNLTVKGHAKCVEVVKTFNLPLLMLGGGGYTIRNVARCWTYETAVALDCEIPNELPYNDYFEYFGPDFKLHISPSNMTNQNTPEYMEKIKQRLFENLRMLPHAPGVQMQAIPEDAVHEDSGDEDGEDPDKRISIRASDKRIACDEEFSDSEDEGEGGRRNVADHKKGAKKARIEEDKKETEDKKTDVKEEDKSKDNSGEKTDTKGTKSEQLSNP
Chain of Phosphatidylinositol 4,5-bisphosphate 3-kinase catalytic subunit alpha isoform (P42336 whole entry, canonical isoform): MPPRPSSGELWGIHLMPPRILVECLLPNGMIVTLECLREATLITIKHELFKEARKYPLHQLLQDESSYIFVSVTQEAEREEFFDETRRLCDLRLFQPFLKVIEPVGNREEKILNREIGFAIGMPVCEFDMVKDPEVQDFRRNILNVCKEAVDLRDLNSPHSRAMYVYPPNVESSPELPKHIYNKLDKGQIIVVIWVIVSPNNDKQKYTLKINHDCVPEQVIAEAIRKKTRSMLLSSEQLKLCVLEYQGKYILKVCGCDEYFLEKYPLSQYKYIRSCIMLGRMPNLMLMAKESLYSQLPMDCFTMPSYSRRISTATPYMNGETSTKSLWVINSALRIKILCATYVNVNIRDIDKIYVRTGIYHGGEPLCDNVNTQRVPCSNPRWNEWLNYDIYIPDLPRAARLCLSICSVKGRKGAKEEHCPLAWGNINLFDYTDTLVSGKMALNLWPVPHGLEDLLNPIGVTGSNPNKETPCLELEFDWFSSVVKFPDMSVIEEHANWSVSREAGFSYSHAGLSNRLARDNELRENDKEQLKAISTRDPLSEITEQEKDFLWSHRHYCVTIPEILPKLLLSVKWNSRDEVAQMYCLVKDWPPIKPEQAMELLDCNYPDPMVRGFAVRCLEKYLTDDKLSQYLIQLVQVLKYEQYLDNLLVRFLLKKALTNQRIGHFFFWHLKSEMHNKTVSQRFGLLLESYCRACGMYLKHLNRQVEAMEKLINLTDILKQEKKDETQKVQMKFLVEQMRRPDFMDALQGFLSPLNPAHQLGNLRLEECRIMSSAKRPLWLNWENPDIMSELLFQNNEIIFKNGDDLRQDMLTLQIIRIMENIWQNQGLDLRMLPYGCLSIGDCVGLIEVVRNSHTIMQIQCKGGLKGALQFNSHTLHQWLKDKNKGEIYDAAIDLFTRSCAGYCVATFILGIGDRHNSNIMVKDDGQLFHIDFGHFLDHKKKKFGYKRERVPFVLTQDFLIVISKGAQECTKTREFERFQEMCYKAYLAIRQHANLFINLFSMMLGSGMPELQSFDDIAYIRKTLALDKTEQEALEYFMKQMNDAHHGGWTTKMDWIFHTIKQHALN
Chain of Histone deacetylase 3 (O15379 whole entry): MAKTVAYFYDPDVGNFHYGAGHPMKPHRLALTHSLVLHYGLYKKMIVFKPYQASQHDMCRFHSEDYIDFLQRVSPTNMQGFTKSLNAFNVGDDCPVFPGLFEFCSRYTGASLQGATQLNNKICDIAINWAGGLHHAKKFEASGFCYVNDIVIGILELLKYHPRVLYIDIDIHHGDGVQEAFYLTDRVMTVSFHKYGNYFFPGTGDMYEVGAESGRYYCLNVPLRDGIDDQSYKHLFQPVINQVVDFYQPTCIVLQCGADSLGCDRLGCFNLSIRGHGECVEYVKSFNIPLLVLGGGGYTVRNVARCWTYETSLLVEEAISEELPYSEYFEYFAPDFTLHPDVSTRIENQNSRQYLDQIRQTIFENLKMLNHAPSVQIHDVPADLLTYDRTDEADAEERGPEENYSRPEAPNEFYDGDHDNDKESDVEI

## Nc1cc(F)ccc1NC(=O)c1ccc(NC(=O)Nc2ccc(-c3nc(N4CCOCC4)nc(N4CCOCC4)n3)cc2)cc1
[1]
  IC50: 17 nM
Histone deacetylase 3
  IC50: 499 nM
Histone deacetylase 1
  IC50: > 10000 nM
Histone deacetylase 2
  IC50: > 10000 nM

## Nc1ccccc1NC(=O)CNC(=O)c1ccc(NC(=O)Nc2ccc(-c3nc(N4CCOCC4)nc(N4CCOCC4)n3)cc2)cc1
[1]
  IC50: 37.7 nM
Histone deacetylase 3
  IC50: > 10000 nM
Histone deacetylase 1
  IC50: 1950 nM
Histone deacetylase 2
  IC50: > 10000 nM

## Nc1ccccc1NC(=O)CCCCCNC(=O)c1ccc(NC(=O)Nc2ccc(-c3nc(OC4CCOC4)nc(N4CCOCC4)n3)cc2)cc1 (stereo not given)
[1]
  IC50: 7.9 nM
Histone deacetylase 3
  IC50: 54 nM
Histone deacetylase 1
  IC50: 211 nM
Histone deacetylase 2
  IC50: 247 nM

## Nc1ccccc1NC(=O)CCCNC(=O)c1ccc(NC(=O)Nc2ccc(-c3nc(N4CCOCC4)nc(N4CCOCC4)n3)cc2)cc1
[1]
  IC50: 11.6 nM
Histone deacetylase 3
  IC50: > 10000 nM
Histone deacetylase 1
  IC50: > 10000 nM
Histone deacetylase 2
  IC50: > 10000 nM

## Nc1ccccc1NC(=O)c1ccc(NC(=O)Nc2ccc(-c3nc(OC4COC4)nc(N4CCOCC4)n3)cc2)cc1
[1]
  IC50: 2.4 nM
Histone deacetylase 3
  IC50: > 10000 nM
Histone deacetylase 1
  IC50: > 10000 nM
Histone deacetylase 2
  IC50: > 10000 nM

## COc1nc(-c2ccc(NC(=O)Nc3ccc(C(=O)NCCCCCCC(=O)Nc4ccccc4N)cc3)cc2)nc(N2CCOCC2)n1
[1]
  IC50: 88.3 nM
Histone deacetylase 3
  IC50: 24.6 nM
Histone deacetylase 1
  IC50: 336 nM
Histone deacetylase 2
  IC50: 459 nM

## Nc1ccccc1NC(=O)c1ccc(NC(=O)Nc2ccc(-c3nc(N4CCOCC4)nc(N4CCOCC4)n3)cc2)cc1
[1]
  IC50: 6.5 nM
Histone deacetylase 3
  IC50: 134 nM
Histone deacetylase 1
  IC50: > 10000 nM
Histone deacetylase 2
  IC50: > 10000 nM

## CC(=O)Nc1ccc(C(=O)Nc2ccccc2N)cc1 [TACEDINALINE]
JeKo-1 [2]
  viability at 0.5 µM: 92.4%
MDA-MB-231
  IC50: 10900 nM
JeKo-1 [3]
  Activity: 0.37%
JeKo-1 [4]
  CI: 0.592
[1]
  IC50: > 10000 nM
JeKo-1 [5]
  CI: 0.221
JeKo-1 [6]
  IC50: 1900 nM
JeKo-1 [7]
  Activity: 0.51%
JeKo-1 [8]
  Activity: 0.59%
JeKo-1 [9]
  CI: 0.274
JeKo-1 [10]
  CI: 0.191
JeKo-1 [11]
  Activity: 4.73%
JeKo-1 [12]
  CI: 0.39
JeKo-1 [13]
  Activity: 2.3%
JeKo-1 [14]
  viability at 0.25 µM: 92.6%
JeKo-1 [15]
  CI: 0.629
JeKo-1 [16]
  CI: 0.475
JeKo-1 [17]
  CI: 0.61
JeKo-1 [18]
  CI: 0.119
JeKo-1 [19]
  Activity: 5.6%
MM1.S
  IC50: 4700 nM
JeKo-1 [20]
  Activity: 5.62%
JeKo-1 [21]
  CI: 0.191
JeKo-1 [22]
  CI: 0.575
[23]
  IC50 at 48 h: > 100000 nM
JeKo-1 [24]
  Activity: 1.48%
JeKo-1 [25]
  CI: 0.711
JeKo-1 [26]
  viability at 1 µM: 92.4%
JeKo-1 [27]
  CI: 0.342
HL-60
  IC50: 2800 nM
JeKo-1 [28]
  Activity: 1.46%
JeKo-1 [29]
  CI: 0.43
JeKo-1 [30]
  CI: 0.431
JeKo-1 [31]
  CI: 0.443

## Nc1ccccc1NC(=O)CCCCCNC(=O)c1ccc(NC(=O)Nc2ccc(-c3nc(OC4COC4)nc(N4CCOCC4)n3)cc2)cc1
[1]
  IC50: 4.5 nM
Histone deacetylase 3
  IC50: 17.7 nM
Histone deacetylase 1
  IC50: 81.5 nM
Histone deacetylase 2
  IC50: 128 nM

## COc1nc(-c2ccc(NC(=O)Nc3ccc(C(=O)Nc4ccccc4N)cc3)cc2)nc(N2CCOCC2)n1
[1]
  IC50: 11.2 nM
Histone deacetylase 3
  IC50: 334 nM
Histone deacetylase 1
  IC50: > 10000 nM
Histone deacetylase 2
  IC50: > 10000 nM
